# Results: patent US9409904B2, “Compounds and compositions for use in augmentation of glucose” (YISSUM RESEARCH DEVELOPMENT COMPANY OF THE HEBREW …, priority 2011, dated 2016)
# Entries after “also recorded” stand apart in the source; their conditions may differ. Where two headings read alike, the source gives them in different places.
# Assays:
# L6 myotubes = test: [3H]-2-deoxy-D-glucose (dGlc) uptake assay in L6 myotubes; format: cell-based; details: for rate of glucose uptake compared to vehicle (DMSO) treated control / activity at 100 µM: 100 μM; for rate of glucose uptake compared to vehicle (DMSO) treated control: basal rate = 100%; for activity at 100 µM: Mean ± SD (n = 3), read-out: Effect on glucose uptake [100 μM] in L6 myotubes (%); for maximal effective concentration, glucose uptake: dose response, 5 h (3) or 12 h (4, 15)
# Procedure: The effect of the various derivatives on the rate of glucose uptake in L6 myotubes was investigated. […] The abundance of GLUT1 and GLUT4 in the plasma membranes of L6 myotubes was determined in cells expressing GLUT-1myc or GLUT-4myc, as described before. […] In addition, the effect of compounds on the glucose—stimulated insulin secretion (GSIS) was investigated.
# L6 myotubes were maintained as described in [21]. All experiments were conducted on fully differentiated myotubes.
# The rate of [^3H]dGlc uptake in myotubes, in the absence or presence of insulin, was determined as described in [21]. […] […] The cultures were then rinsed 3 times with PBS at room temperature and incubated with PBS, pH 7.4, containing 0.1 mM dGlc and 1.0 μCi/ml [^3H]dGlc for 5 minutes at room temperature. At the end of the assay, the myotubes were lysed in 0.1% (w/v) SDS in water and taken for liquid scintillation.
# AMPK = test: Thr172 phosphorylation of AMPK in L6 myotubes, Western blot of whole cell lysates; format: cell-based; details: for Thr172 phosphorylation in AMPK / AMPK activation (result in words): L6 myotubes
# Procedure: The effect of the various derivatives on the rate of glucose uptake in L6 myotubes was investigated. […] The abundance of GLUT1 and GLUT4 in the plasma membranes of L6 myotubes was determined in cells expressing GLUT-1myc or GLUT-4myc, as described before. […] In addition, the effect of compounds on the glucose—stimulated insulin secretion (GSIS) was investigated. Whole cell lysates were prepared as previously described with some minor modifications: the lysis buffer contained 50 mM Tris-HCl, pH 7.5, 1 mM EDTA, 1 mM EGTA, 1 mM Na3VO4, 150 mM NaCl, 50 mM NaF, 10 mM sodium-glycerophosphate, 5 mM sodium pyrophosphate, and 1 mM PMSF, supplemented with 0.1% (v/v) NP-40, 0.1% (v/v) 2-β-mercaptoethanol, and protease inhibitor cocktail (1:100 dilution). The cells were washed by ice-cold PBS, and 1 ml of lysis buffer was then added and incubated at 4° C. for 40 minutes. The resulting cell lysates were centrifuged at 8,700 g×30 minutes at 4° C. and the resulting supernatant fractions were separated and kept at −20° C. until used. Protein content in the supernatant was determined according to Bradford, using a BSA standard dissolved in the same buffer. […] Samples for Western blot analyses of GLUT1 and GLUT4 were prepared as described in [22]. The proteins were separated on 10% SDS-PAGE and Western blot analyses performed using antibodies according to our previously established protocols.
# INS-1E cells = test: Glucose-stimulated insulin secretion (GSIS) from INS-1E cells, insulin RIA; format: cell-based
# Procedure: INS-1E cells (passages 70-90) were grown and maintained as described in Merglen A et al. Endocrinology 2004, 145:667-678.
# To investigate the glucose—stimulated insulin secretion (GSIS) and insulin radioimmunoassay-confluent cultures of INS-1E cells were pre-incubated for 30 min in KRBH-BSA buffer containing 3.3 mM glucose. This was followed by 1-h incubation at 3.3 and an additional 1-h at 16.7 mM glucose, as described (1). Aliquots from the incubation buffers were collected, cleared by centrifugation and frozen until used for insulin RIA. Total insulin content in β-cells was similarly measured in aliquots of cell extracts (1). RIA kits rat insulin (Linco Research, St. Charles, Mo.) was used according to manufacturers' protocols.
# GLUT4 = test: Total GLUT4 content in whole cell lysates of L6 myotubes, Western blot; format: cell-based
# Procedure: (§1) Whole cell lysates were prepared as previously described with some minor modifications: the lysis buffer contained 50 mM Tris-HCl, pH 7.5, 1 mM EDTA, 1 mM EGTA, 1 mM Na3VO4, 150 mM NaCl, 50 mM NaF, 10 mM sodium-glycerophosphate, 5 mM sodium pyrophosphate, and 1 mM PMSF, supplemented with 0.1% (v/v) NP-40, 0.1% (v/v) 2-β-mercaptoethanol, and protease inhibitor cocktail (1:100 dilution). The cells were washed by ice-cold PBS, and 1 ml of lysis buffer was then added and incubated at 4° C. for 40 minutes. The resulting cell lysates were centrifuged at 8,700 g×30 minutes at 4° C. and the resulting supernatant fractions were separated and kept at −20° C. until used. Protein content in the supernatant was determined according to Bradford, using a BSA standard dissolved in the same buffer. Aliquots (5-60 μg of protein) were mixed with the sample buffer [62.5 mM Tris-HCl, pH 6.8, 2% (w/v) SDS, 10% (v/v) glycerol, 50 mM DTT, and 0.01% (w/v) bromophenol blue], heated at 95° C. for 5 minutes. Samples for Western blot analyses of GLUT1 and GLUT4 were prepared as described in [22]. The proteins were separated on 10% SDS-PAGE and Western blot analyses performed using antibodies according to our previously established protocols.
# GLUT1 = test: Total GLUT1 content in whole cell lysates of L6 myotubes, Western blot; format: cell-based
# Procedure: as §1
# GLUT4myc = test: Colorimetric determination of surface GLUT4myc in L6 myotubes; format: cell-based
# Procedure: The colorimetric detection of surface GLUT4myc or GLUT1myc in L6 myotubes was performed as described in [7]. Briefly, cultured myotubes were incubated with rabbit anti-C-Myc antibody (1:200 dilution), washed and fixed with 3% formaldehyde, and further interacted with goat HRP-conjugated anti-rabbit IgG (1:2000 dilution). Following the washes, a solution of OPD was added, and the culture plates were taken for absorbance measurement at 492 nM to estimate the relative abundance of GLUT1myc or GLUT4myc on the plasma membrane of the myotubes. The GLUT1myc and GLUT4myc L6 cell cultures were the courtesy of Dr. A. Klip, Hospital for Sick Children (Toronto, ON, Canada).
# The capacity of compound 34 to increase the rate of glucose uptake by increasing GLUT4 content in the plasma membrane of myotubes was tested. […] The cells expressing GLUT1myc or GLUT4myc were treated with 25 μM of 34 or DMSO as described above. At the end of the incubation, the cultures were taken for immunodetection of surface GLUT1myc (open bars) or GLUT4myc (black bars), as described herein above.
compound,measurement,setting,value
"NC1=NC(=O)/C(=C\C=C\c2ccc([N+](=O)[O-])o2)S1 [Compound 2, (E)-2-Amino-5-((E)-3-(5-nitrofuran-2-yl)allylidene)thiazol-4(5H)-one]",rate of glucose uptake in L6 myotubes (result in words),L6 myotubes,slightly increased
same,concentrations at which effects on glucose uptake and Thr172 phosphorylation were observed,"L6 myotubes; L6 myotubes, data not shown",above 500 μM
same,Thr172 phosphorylation in AMPK / AMPK activation (result in words),AMPK,marginally induced
"CCOc1ccc2nc(S)sc2c1 [Compound 4, 6-ethoxybenzo[d]thiazole-2-thiol]",persistence of stimulatory effect on glucose uptake,L6 myotubes,24 h
same,rate of glucose uptake in L6 myotubes (result in words),L6 myotubes,increase
same,rate of glucose uptake compared to vehicle (DMSO) treated control,L6 myotubes,172.4%±12.4%
same,activity at 100 µM,"L6 myotubes; Rattus norvegicus, L6, Table 2",172 ± 12.4%
same,"maximal effective concentration, glucose uptake",L6 myotubes,100 µM
same,Thr172 phosphorylation in AMPK / AMPK activation (result in words),AMPK,significantly induced
"Nc1nncs1 [Compound 5, 2-amino-1,3,4-thiadiazole]",activity at 100 µM,"L6 myotubes; Rattus norvegicus, L6, Table 1",97.4 ± 2.9%
"Cc1nnc(N)s1 [Compound 6, 2-amino-5-methyl-1,3,4-thiadiazole]",activity at 100 µM,"L6 myotubes; Rattus norvegicus, L6, Table 1",101 ± 5.5%
"Cn1cnnc1S [Compound 7, 3-mercapto-4-methyl-4H-1,2,4-triazole]",activity at 100 µM,"L6 myotubes; Rattus norvegicus, L6, Table 1",107 ± 7.5%
"Sc1ncccn1 [Compound 8, 2-mercaptopyrimidine]",activity at 100 µM,"L6 myotubes; Rattus norvegicus, L6, Table 1",100 ± 4.9%
"Cn1ccnc1S [Compound 9, 2-mercapto-1-methylimidazole]",activity at 100 µM,"L6 myotubes; Rattus norvegicus, L6, Table 1",93 ± 9.5%
"Nc1nccs1 [Compound 10, 2-aminothiazole]",activity at 100 µM,"L6 myotubes; Rattus norvegicus, L6, Table 1",95.7 ± 5.1%
"SC1=NCCS1 [Compound 11, 2-mercapto-2-thiazoline]",activity at 100 µM,"L6 myotubes; Rattus norvegicus, L6, Table 1",106 ± 6.8%
"Nc1ncc([N+](=O)[O-])s1 [Compound 12, 2-amino-5-nitrothiazole]",activity at 100 µM,"L6 myotubes; Rattus norvegicus, L6, Table 1",95.1 ± 8.9%
"c1ccc2scnc2c1 [Compound 13, benzothiazole]",activity at 100 µM,"L6 myotubes; Rattus norvegicus, L6, Table 2",117 ± 9.7%
"CCOc1ccc2nc(N)sc2c1 [Compound 14, 6-ethoxybenzothiazol-2-amine]",activity at 100 µM,"L6 myotubes; Rattus norvegicus, L6, Table 2",111 ± 14.2%
"Oc1nc2ccc(Br)cc2s1 [Compound 15, 6-bromo-2-benzothiazolinone]",persistence of stimulatory effect on glucose uptake,L6 myotubes,24 h
same,rate of glucose uptake in L6 myotubes (result in words),L6 myotubes,increase
same,rate of glucose uptake compared to vehicle (DMSO) treated control,L6 myotubes,132.9%±13.8%
same,activity at 100 µM,"L6 myotubes; Rattus norvegicus, L6, Table 2",133 ± 13.8%
same,"maximal effective concentration, glucose uptake",L6 myotubes,100 µM
same,Thr172 phosphorylation in AMPK / AMPK activation (result in words),AMPK,significantly induced
"c1cnc2[nH]nnc2c1 [Compound 16, 1H-1,2,3-triazolo[4,5]pyridine]",activity at 100 µM,"L6 myotubes; Rattus norvegicus, L6, Table 2",86.7 ± 17.9%
"c1ccc2[nH]nnc2c1 [Compound 17, 1H-benzotriazole]",activity at 100 µM,"L6 myotubes; Rattus norvegicus, L6, Table 2",87.5 ± 11.4%
"Oc1ccc2nc(S)sc2c1 [Compound 19, 2-mercaptobenzothiazol-6-ol]",rate of glucose uptake in L6 myotubes (result in words),L6 myotubes,did not stimulate
"CCCSc1nc2ccc(O)cc2s1 [Compound 20, 2-(propylthio)benzothiazol-6-ol]",glucose-stimulated insulin secretion from INS-1E cells (result in words),INS-1E cells,augments
same,glucose stimulated insulin secretion in INS-1E,"INS-1E cells; 10 μM, indicated time periods",increased
same,glucose-stimulated insulin secretion,INS-1E cells; 25 μM,increased
same,rate of glucose uptake in L6 myotubes (result in words),L6 myotubes,increase
same,rate of glucose uptake in L6 myotubes (result in words),L6 myotubes; listed as EMM-45,increases; also recorded: induced an increase; also recorded: induces stimulation
same,melting point,,67 to 70 °C
"CCC(CC)CSc1nc2ccc(O)cc2s1 [Compound 21, 2-(2-ethylbutylthio)benzothiazol-6-ol]",melting point,,105 to 110 °C
"CCCCSc1nc2ccc(O)cc2s1 [Compound 23, 2-(butylthio)benzothiazol-6-ol]",melting point,,80 to 85 °C
"CCOc1ccc2nc(SCCC(=O)O)sc2c1 [Compound 25, 3-(6-ethoxybenzothiazol-2-ylthio)propanoic acid]",rate of glucose uptake in L6 myotubes (result in words),L6 myotubes,increase
same,increase of glucose uptake in comparison with vehicle-treated cells,"L6 myotubes; 50 μM, within 5 hours of incubation",1.8 fold
same,Thr172 phosphorylation in AMPK / AMPK activation (result in words),AMPK,activated AMPK
same,time of maximal (peak) Thr172 phosphorylation in AMPK,AMPK; incubation time,60 min
same,melting point,,175 to 178 °C
"CCOc1ccc2nc(S(N)(=O)=O)sc2c1 [Compound 30, 6-ethoxybenzothiazole-2-sulfonamide]",rate of glucose uptake in L6 myotubes (result in words),L6 myotubes,inactive
"CCOc1ccc2nc(SSc3nc4ccc(OCC)cc4s3)sc2c1 [Compound 31, 1,2-bis(6-ethoxybenzothiazol-2-yl)disulfane]",glucose-stimulated insulin secretion from INS-1E cells (result in words),INS-1E cells,increases
same,rate of glucose uptake in L6 myotubes (result in words),L6 myotubes,increase; also recorded: substantially increased
same,Emax,"L6 myotubes; Rattus norvegicus, L6, 150 μM within 5 hours of incubation, read-out: maximal effect on rate of glucose uptake, compared with a non-treated control",189 ± 21.8%
same,rate of glucose uptake in L6 myotubes (result in words),L6 myotubes; listed as EMM-5,increases
same,persistence of Thr172 phosphorylation of AMPK,AMPK; incubation time,up to 5 hours
same,time to induction of Thr172 phosphorylation in AMPK,AMPK; incubation time,≤ 40 min
same,melting point,,185 to 190 °C
"c1ccc2[nH]c(SSc3nc4ccccc4[nH]3)nc2c1 [Compound 32, 1,2-di(1H-benziimidazol-2-yl)disulfane]",rate of glucose uptake in L6 myotubes (result in words),L6 myotubes,no stimulatory effect
"CCCNC(=O)CSc1nc2ccc(OCC)cc2s1 [Compound 33, 2-((6-ethoxybenzothiazol-2-yl)thio)-N-propylacetamide]",rate of glucose uptake in L6 myotubes (result in words),L6 myotubes,increase; also recorded: markedly augmented
same,increase of rate of glucose uptake,L6 myotubes; 100 μM within 5 hours of incubation,2 fold
same,time to significant Thr172 phosphorylation of AMPK,AMPK; incubation time,5 h
insulin: Human insulin (Actrapid) purchased from Novo Nordisk [reference compound],total content of GLUT4 in myotubes,GLUT4,Neither compound altered
same,total content of GLUT1 in myotubes,GLUT1,Neither compound altered
same,time of effect on GLUT4myc translocation to the plasma membrane,GLUT4myc,30 min
same,abundance of GLUT4myc in the plasma membrane,"GLUT4myc; 25 μM of 34, insulin",increased
same,increase of rate of glucose uptake,"L6 myotubes; insulin 100 nM, last 20 minutes of incubation",45%±13%
